{
  "source": "patent US20260000496A1",
  "about": "“MATERIALS AND METHODS FOR DRUG-INDUCED GINGIVAL OVERGROWTH” (Optimed Technology, Inc., priority 2019, published 2026)",
  "key": {"[1]": {"test_system": "NF-κB (p-P65)", "test": "Western blot of phospho-p65 (NF-κB) in oral keratinocytes", "format": "cell-based, human", "description": "Cell Culture. Normal human oral keratinocytes (NOKSI) and fibroblast (HOF) cells were maintained in Dulbecco […] Eagle's medium (Sigma-Aldrich, St. Louis, MO, USA) supplemented with 10% fetal bovine serum (Atlas Bio-logicals, Fort Collins, CO, USA) and 100 units/mL penicillin and 100 μg/mL streptomycin (LifeTechnologies, Carlsbad, CA, USA). Cells were grown in incubator at 37° C. in a humidified chamber with 5% CO2.\nDrugs treatment in cell culture. The cells were treated alone or with different combination of lipopolysaccharide, cyclosporine, phenytoin, and folic acid. All of them were purchased from Sigma-Aldrich (St. Louis, MO, USA). Each of them were used from 0 μg/ml to 40 μg/ml and the optimum concentration were found 10 μg/ml.\nWestern blot analysis. Cells were seeded in 60 mm plates with a density of 5×10^5 cells per plate and washed briefly with Dulbecco's phosphate-buffered saline (Gibco, Waltham, MA, USA). Whole cell lysates were prepared using RIPA lysis buffer containing protease inhibitor cocktail (Sigma-Aldrich). Total protein concentration was determined using the BCA reagent (Pierce, Waltham, MA, USA). 20 μg of total protein were resolved on sodium dodecyl sulfate-polyacrylamide gel electrophoresis and transferred to polyvinylidenedifluoride membrane and immunoblotted. The blots were incubated for 1 h in 1% bovine serum albumin (BSA) (Sigma-Aldrich) to block the non-specific bindings followed by over-night incubation in primary antibodies (MyD88 and pP65 from Cell Signaling Technology, and human LITAF ThermoFisher Sigma) at 4° C. on shaker. Next day, blots were washed for three times (10 min each) in Tris-buffered saline containing 1% Tween20 (TBST) followed by incubation with secondary antibody (Goat anti-rabbit IgG HRP) with 1:10,000 dilution for 1 h. Following washes, bands were visualized using gel documentation Imaging Systems (BioRad). The band intensities were quantified using software ImageJ (NIH, USA) and relative protein levels were normalized by β-actin (Cell Signaling). […]"}, "[2]": {"test_system": "drug-induced gingival overgrowth (DIGO)", "test": "Mice study #2: preventive and active treatment of DIGO, gingival overgrowth", "format": "in vivo, C57BL/6 mice", "description": "Using the C57BL/6, the DIGO were induced in 33 male mice for 14 days in an anaesthetized condition as described above. […] In the prevention group, folic acid (10 μg/ml) was included in the drinking water from the time of ligature placement until end of the study (14 days). […] In the combined prevention and treatment group, both modes of folic acid treatments had provided including PO and local gel application as described above. Mice study #2: Validation study for preventive and active treatment for DIGO. […] One set of these mice were used as a control disease group (FIG. 23A) while the other group was treated with folic acid (gel and in drinking water) (FIG. 23B). In the prevention and treatment group, folic acid (10 μg/ml) (Sigma-Aldrich, St. Louis MO) was included in the drinking water from the time of suture placement until end of the study (14 days). Additionally, gel applications were repeated daily until the end of the study (14 days). The four groups in this study were: • 1. Control group (n=2): no interventions were performed • 2. […] 2D planimetry with stereomicroscopy. […] 3D Digital Imaging and Volumetric Analysis. A 3Shape TRIOS® intraoral digital scanner was used to scan all of the dissected tissue and create a 3D STL (STereoLithography) file from each scan. Autodesk […]® (Autodesk 23 Inc., CA, USA) was used to overlay each individual scan on top of one another, keeping each of the distinct mice studies separately. Anatomical landmarks of the mandibular incisors, interdental papilla, and molars were used to make sure scans were accurately overlaid. Autodesk […]® was then used to selectively remove the mandibular incisors from each digital scan. The scans were all saved and imported into Autodesk Netfabb® (Autodesk Inc., CA, USA) where plane cuts were used to simultaneously crop all scans to include only the essential parts of the gingival tissue that would indicate an increase or decrease in growth. The cropped scans were saved and imported into open source software platform 3DSlicer 4.8, where they were volumetrically analyzed using the “Volumes” module. The quantified volume values were statistically analyzed in GraphPad Prism® 7 (GraphPad Software Inc., CA, USA)."}},
  "data": [
    {"molecule": "Nc1nc2ncc(CNc3ccc(C(=O)N[C@@H](CCC(=O)O)C(=O)O)cc3)nc2c(=O)[nH]1", "note": "[folic acid]", "values": [
      {"measurement": "p-P65 protein level", "setting": "[1]; LPS, CSA, FA each 10 μg/ml, 24 hours", "value": "inhibits CSA-induced expression"},
      {"measurement": "amount of phospho-p65 (p-P65) protein", "setting": "[1]; LPS, Phe, FA each 10 μg/ml, 24 hours", "value": "reduces phosphorylation of NF-κB (p-P65)"},
      {"measurement": "NF-κB by western blot", "setting": "[1]; normal oral keratinocyte cells, FIG. 35", "value": "downregulation"},
      {"measurement": "gingival overgrowth, 2D planimetry with stereomicroscopy", "setting": "[2]; active treatment after 1 week of disease", "value": "even further reduce these gingival overgrowths"},
      {"measurement": "gingival overgrowth, clinical images", "setting": "[2]; active treatment: DIGO 1 week, sutures removed and cyclosporine stopped, then folic acid p.o. & local", "value": "effectively reduce gingival overgrowths"},
      {"measurement": "mean gingival volume, 3D morphometric analysis", "setting": "[2]; folic acid group, day 14, n=5, disease group 23.17±1.134 mm^3, p<0.005", "value": "~16.19±0.9224", "unit": "mm^3"},
      {"measurement": "gingival overgrowth, 2D planimetry with stereomicroscopy", "setting": "[2]; preventive treatment", "value": "all mice appear to respond"},
      {"measurement": "gingival overgrowth, clinical images", "setting": "[2]; preventive treatment, folic acid p.o. & local, 14 days", "value": "prominently reduced gingival overgrowth"},
      {"measurement": "overlaid 3D volumes, control vs folic acid treated", "setting": "[2]; representative samples, day 14, some increase on lingual surfaces", "value": "little difference"}
    ]}
  ]
}
